This test has as its target interaction between p53 and MDM2 proteins (recombinant GST-tagged MDM2) (Homo sapiens, UniProt Q00987). In words: ELISA of inhibition of p53-MDM2 interaction (GST-tagged MDM2 binding to immobilized p53-like peptide). To be noted: absorption at 450 nm, triplicate. On the technique in general: ELISA stands for enzyme-linked immunosorbent assay.

interaction between p53 and MDM2 proteins (recombinant GST-tagged MDM2), sequence (Q00987 whole entry): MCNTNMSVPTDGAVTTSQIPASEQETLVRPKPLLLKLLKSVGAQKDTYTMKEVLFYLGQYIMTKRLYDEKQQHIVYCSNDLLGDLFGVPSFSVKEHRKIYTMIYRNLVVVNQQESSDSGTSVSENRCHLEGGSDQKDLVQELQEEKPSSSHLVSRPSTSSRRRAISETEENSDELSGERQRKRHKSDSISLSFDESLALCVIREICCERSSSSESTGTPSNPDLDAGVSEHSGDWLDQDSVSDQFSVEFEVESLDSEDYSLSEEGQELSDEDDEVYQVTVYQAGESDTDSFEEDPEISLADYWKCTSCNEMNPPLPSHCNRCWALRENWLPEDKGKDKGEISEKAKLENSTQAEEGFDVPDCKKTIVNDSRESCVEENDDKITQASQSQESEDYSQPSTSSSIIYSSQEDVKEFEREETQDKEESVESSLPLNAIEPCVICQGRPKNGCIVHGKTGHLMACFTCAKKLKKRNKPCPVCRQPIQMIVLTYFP

Usually IC50 stands for the midpoint of a concentration-inhibition curve. Consider `CCOc1cc(OC)ccc1C1=N[C@H](CC2CCCC2)[C@H](c2ccc(Cl)cc2)N1C(=O)N1CCN(C)CC1` (stereo in doubt) [Example 24, [5-(4-Chloro-phenyl)-4-cyclopentylmethyl-2-(2-ethoxy-4-methoxy-phenyl)-4,5-dihydro-imidazol-1-yl]-(4-methyl-piperazin-1-yl)-methanone], for which the IC50 is 13.2 µM.
The value for `CCCCC[C@H]1N=C(c2ccc(OC)cc2OCC)N(C(=O)N2CCC(N3CCCC3)CC2)[C@H]1c1ccc(Cl)cc1` (relative stereo) [Example 55, [5-(4-Chloro-phenyl)-2-(2-ethoxy-4-methoxy-phenyl)-4-pentyl-4,5-dihydro-imidazol-1-yl]-(4-pyrrolidin-1-yl-piperidin-1-yl)-methanone] was 0.7 µM; that for `CCOc1cc(OC)ccc1C1=N[C@H](CC2CCCC2)[C@H](c2ccc(Cl)cc2)N1C(=O)N1CCC(N2CCCC2)CC1` (relative stereo) [Example 28, [5-(4-Chloro-phenyl)-4-cyclopentylmethyl-2-(2-ethoxy-4-methoxy-phenyl)-4,5-dihydro-imidazol-1-yl]-(4-pyrrolidin-1-yl-piperidin-1-yl)-methanone] was 5.5 µM.
Regarding `CCC[C@H]1N=C(c2ccc(OC)cc2OCC)N(C(=O)N2CCC(N3CCCC3)CC2)[C@H]1c1ccc(Cl)cc1` (stereo in doubt) [Example 26, [5-(4-Chloro-phenyl)-2-(2-ethoxy-4-methoxy-phenyl)-4-propyl-4,5-dihydro-imidazol-1-yl]-(4-pyrrolidin-1-yl-piperidin-1-yl)-methanone], the IC50 is 45 µM.

For the origin of these results see patent publication US7132421B2, “CIS-imidazoles” (Hoffmann-La Roche Inc., priority 2003, dated 2006).
